The values that follow come from ChEMBL document CHEMBL1201862, “PubChem BioAssay data set” (2004).

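Method: 48-hour compound exposure of cells in 96-well plates, five concentrations, linear interpolation of endpoints. Here, GI50 denotes the concentration required for 50% inhibition of growth.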 Activity calls are given as the source filed them. Cut-off read from the data, not from the text of the source: active = GI50 up to about 1.1 µM and inactive = higher.

Holding throughout (experiment): NCI-60 cell line screen, 48 h
In assay [1] the test system is HOP-18.
In assay [2] the test system is DMS-273.
The subject of assay [3] is DLD-1.
The test system of assay [4] is M19-MEL.
For assay [5], the system named is XF498.
The test system of assay [6] is DMS-114.
Assay [7] deals with LXFL 529.
For assay [8], the system named is KM-20L2.
Assay [9] deals with RXF 631.

Take `O=C(NN1C(=O)C(Cl)C1c1ccc(O)cc1)c1ccccc1O` (centres undefined): the GI50 in assay [1] was 15.9 µM (inactive); in assay [2], 12.9 µM (inactive); in assay [3], 15.8 µM (inactive); in assay [4] it was 21.7 µM (inactive); in [5], 11.1 µM (inactive); in assay [6], 14 µM (inactive). Also, the GI50 in assay [7] was 17.9 µM (inactive).

For `O=Nc1ccc(O)c2ncccc12`, the GI50 in assay [1] is 11.3 µM (inactive); in [2], 2.55 µM (inactive); in [3] it was 9.57 µM (inactive); in [4] it was 4.25 µM (inactive); in [6], 3.9 µM (inactive); in assay [7] it was 2.38 µM (inactive). Also, the GI50 in assay [8] is 23.9 µM (inactive).

`O=C1C=C(O)c2nc(O)ccc2C1=O`: the GI50 in [2], in assay [3], in assay [4], in [5] and in assay [8] was > 100 µM (inactive) in each case.

Turning to `Cc1ccc(NC(=O)C(=O)C(C#N)c2ccccc2C)cc1C` (centres undefined), the GI50 in assay [1] was > 100 µM (inactive); in assay [2], > 71.6 µM (inactive); in assay [3] it was 52.4 µM (inactive); in assay [5], > 100 µM (inactive); in [6], > 41.7 µM (inactive); in [7] it was > 100 µM (inactive). Moreover, in [8], the GI50 was > 79.8 µM (inactive).

On to `Cc1cc(C)[n+]2c(c1)C=CC2.[O-][Cl+3]([O-])([O-])[O-]`, for which the GI50 is 0.459 µM (active) in assay [2]; 10.7 µM (inactive) in assay [3]; 21.2 µM (inactive) in [4]; 5.5 µM (inactive) in [6]; 16.5 µM (inactive) in assay [7]; 21.3 µM (inactive) in [8].

Take `COc1ccc(CC#C/C=C/C(=O)NCC(C)C)cc1`: the GI50 in [1], in assay [2], in assay [3], in [4], in assay [5] and in assay [6] was > 100 µM (inactive) in each case. Moreover, the GI50 in assay [7] and in assay [8] was > 100 µM (inactive) in each case.

Consider `CC(=O)OC1COC(N2C(=O)C(=O)c3ccccc32)C(OC(C)=O)C1OC(C)=O` (centres undefined), for which the GI50 in [9] is > 100 µM (inactive); in assay [2], > 100 µM (inactive); in assay [3] it was > 100 µM (inactive); in assay [4] it was 34.8 µM (inactive); in [6] it was > 100 µM (inactive); in assay [7], > 100 µM (inactive). Also, the GI50 in assay [8] was > 100 µM (inactive).

As to `CCCN(CCC)C1=Nc2ccccc2-n2cnnc2C1`, the GI50 in [2], in assay [4], in [5], in assay [6], in assay [7] and in [8] was > 100 µM (inactive) in each case.

As to `CN(C)c1nc(N(C)C)sc(=O)n1`, the GI50 in [1], in [2], in assay [3], in assay [4], in assay [5] and in assay [6] was > 100 µM (inactive) each time. In addition, the GI50 in assay [7] and in assay [8] was > 100 µM (inactive) each time.

Consider `COc1ccc(C(c2c(O)c3ccccc3n(-c3ccccc3)c2=O)c2c(O)c3ccccc3n(-c3ccccc3)c2=O)cc1`, for which the GI50 in assay [1] was > 100 µM (inactive); in assay [2], > 100 µM (inactive); in [3] it was > 100 µM (inactive); in assay [4], > 100 µM (inactive); in assay [5], 59.3 µM (inactive); in assay [6], > 100 µM (inactive). Further, the GI50 in assay [7] and in [8] was > 100 µM (inactive) each time.

As to `CC(=O)C1=C(C)NC2C=CC=CN12` (centres undefined), the GI50 in assay [1], in assay [2], in assay [3], in assay [4], in [5] and in assay [6] was > 100 µM (inactive) each time. The GI50 in [8] is > 100 µM (inactive).

Turning to `COc1cc2c(cc1OC)C(C(CBr)CBr)N(C1CCCC1)CC2` (centres undefined), the GI50 was > 100 µM (inactive) in [2]; > 100 µM (inactive) in assay [3]; > 100 µM (inactive) in assay [4]; > 100 µM (inactive) in assay [5]; > 100 µM (inactive) in assay [7]; 1.46 µM (inactive) in assay [8].

Turning to `C#C[C@@]1(O)CCCC2=CC(=O)C[C@]21C`, the GI50 in [1], in [3], in [4], in assay [5], in [6] and in assay [7] was > 100 µM (inactive) each time.

Take `COc1cccc2ccc(C(=O)c3ccccc3)nc12`: the GI50 was > 100 µM (inactive) in assay [2]; > 100 µM (inactive) in assay [3]; > 100 µM (inactive) in assay [5]; 77.8 µM (inactive) in assay [7]; > 100 µM (inactive) in assay [8].

On to `COC(=O)N/N=C/c1oc(-c2ccccc2)c(-c2ccccc2)c1[N+](=O)[O-]`, for which the GI50 in assay [9], in assay [2], in [3], in assay [4], in [5] and in assay [6] was > 100 µM (inactive) in each case. Also, the GI50 in assay [7] and in assay [8] was > 100 µM (inactive) in each case.

For the compound `C[N+](C)(C)CC1CCCCC1O` (centres undefined), the GI50 was 1.28 µM (inactive) in assay [1]; > 100 µM (inactive) in assay [9]; > 100 µM (inactive) in assay [2]; > 100 µM (inactive) in [3]; > 100 µM (inactive) in [4]; > 100 µM (inactive) in assay [7]. The GI50 in assay [8] was > 100 µM (inactive).

In the case of `CCCC(C)NC1=C(NC(C)=O)C(=O)c2ccccc2C1=O` (centres undefined), the GI50 in assay [2] was > 100 µM (inactive); in assay [3], > 100 µM (inactive); in assay [4], 62.7 µM (inactive); in [5], > 100 µM (inactive); in [7], > 100 µM (inactive); in [8] it was > 100 µM (inactive).

For the compound `C=C1C(=O)C=C2C=C3C(=O)C(C)(C)C[C@]3(O)C12C` (some centres undefined), the GI50 was 16.4 µM (inactive) in assay [9]; 5.92 µM (inactive) in assay [2]; 1.65 µM (inactive) in assay [3]; 5.68 µM (inactive) in [4]; 1.85 µM (inactive) in [5]; 1.1 µM (active) in assay [6]. In addition, in [7], the GI50 is 1.26 µM (inactive).

As to `COC(=O)C[S+]([O-])c1ccccc1` (centres undefined), the GI50 was 28.9 µM (inactive) in [2]; 29.1 µM (inactive) in assay [3]; 30.5 µM (inactive) in assay [4]; 76.7 µM (inactive) in [5]; 20.8 µM (inactive) in [6]; 31.8 µM (inactive) in [7].

For the compound `CC1=C(CO)C(=O)O[C@@H]([C@@H](C)[C@H]2CC[C@H]3[C@@H]4C[C@H]5O[C@]56[C@@H](O)C=CC(=O)[C@]6(C)[C@H]4CC[C@]23C)C1` [WITHAFERIN A], the GI50 is 0.405 µM (active) in assay [2]; 0.303 µM (active) in assay [3]; 1.5 µM (inactive) in [4]; 1.43 µM (inactive) in [5]; 0.478 µM (active) in assay [6]; 0.333 µM (active) in [7]. Further, the GI50 in assay [8] is 0.392 µM (active).
